From US20240415819A1, “MACROCYCLIC COMPOUNDS AS PROTEASOME SUBUNIT BETA TYPE-5 INHIBITORS” (Lead Discovery Center GmbH, priority 2021, published 2024)
pIC50: −log10 of the molar value.

Key:
[1] = target: T1, β5 subunit of the human immunoproteasome (IPS) (Homo sapiens, UniProt P28062); assay: β5 inhibition assay, human immunoproteasome (Suc-LLVY-AMC); format: biochemical; conditions: IC50 class, Suc-LLVY-AMC substrate
T1 construct: purchased Boston Biochem E-370
Method in brief: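 β5 activity is read as liberated AMC fluorescence (355/460 nm) after 4 h dark reaction at RT with 22.6 μM Suc-LLVY-AMC, stopped by 1 μM bortezomib. Beforehand, 1 nM human IPS and compound sat 10 min at RT in HEPES pH 7.5 buffer containing NaCl, 0.02% SDS and DTT.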

[2] = tested on: MM1 S (B lymphoblast cell line); assay: 48 hr CTG viability assay, MM1S; format: cell-based; conditions: Homo sapiens, 48 hr CTG, read-out: MM1S IC50
Method in brief: (§1)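 Growth inhibition by compound over 48 h; IC50 (nM) derived from duplicate CellTiter-Glo luminescence readings across 0.0015–10 uM.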

[3] = tested on: RPMI 8226 (B lymphocyte cell line, multiple myeloma); assay: 48 hr CTG viability assay, RPMI 8226; format: cell-based; conditions: Homo sapiens, RPMI-8226; 48 hr CTG; read-out: RPMI-8226 IC50
Method in brief: as §1

[4] = tested on: Hs 746T (human gastric carcinoma cell line); assay: 48 hr CTG viability assay, Hs 746T; format: cell-based; conditions: Hs746T, 48 hr CTG, read-out: Hs 746T IC50
Method in brief: as §1

[5] = tested on: A549 (human lung carcinoma cell line); assay: Glo assay of A549 cells (Table 3; ProteasomeGlo plating scheme); format: cell-based; conditions: Homo sapiens; A549 cells; read-out: PGLo A549
Method in brief: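 After acoustic compound transfer, plates incubate 105 min (37° C., 5% CO2). Proteasome-Glo reagent containing Suc-LLVY-Glo substrate is added, plates are shaken, then luminescence is measured after 10-15 min to derive IC50 [nM]. Staurosporine and DMSO serve as controls.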

[6] = target: T2, β5 subunit of the human constitutive proteasome (CPS) (Homo sapiens, UniProt P28074); assay: β5 inhibition assay, human constitutive proteasome (Suc-LLVY-AMC); format: biochemical; conditions: IC50 class, Suc-LLVY-AMC substrate
T2 construct: purchased Boston Biochem E-360
Procedure: The enzymatic activity of the β5 subunit of the human constitutive proteasome (CPS) is analyzed. In another assay, which differs from the assay of the human constitutive proteasome only in using the human immunoproteasome (IPS) the enzymatic activity of the β5 subunit of the human immunoproteasome (IPS) is analyzed. […] Inhibition is indicated as IC50 [nM] (“-”=not measured).

pIC50 [1]	pIC50 [2]	pIC50 [3]	pIC50 [4]	pIC50 [5]	pIC50 [6]	SMILES
> 7.00	> 7.00	> 7.00	> 7.00	> 7.00	> 7.00	Cc1ccc2cc1CNC(=O)[C@H](CCc1ccccc1)NC(=O)[C@@H](NC(=O)C1CC3(C1)CN(C(=O)OC(C)(C)C)C3)CC(=O)N1CCCC(CCO2)C1 (stereo partly drawn) [Compound 580, tert-butyl 6-(((9S,12S)-5^4-methyl-8,11,14-trioxo-9-phenethyl-4-oxa-7,10-diaza-1(3,1)-piperidina-5(1,3)-benzenacyclotetradecaphane-12-yl)carbamoyl)-2-azaspiro[3.3]heptane-2-carboxylate]
> 7.00	> 7.00	> 7.00	> 7.00	> 7.00	> 7.00	Cc1ccc2cc1CNC(=O)[C@H](CCc1ccccc1)NC(=O)[C@@H](NC(=O)N1CCC(C)(O)CC1)CC(=O)N1CCCC(CCO2)C1 (stereo partly drawn) [Compound 676, 4-hydroxy-4-methyl-N-((9S,12S)-5^4-methyl-8,11,14-trioxo-9-phenethyl-4-oxa-7,10-diaza-1(3,1)-piperidina-5(1,3)-benzenacyclotetradecaphane-12-yl)piperidine-1-carboxamide]
> 7.00	> 7.00	> 7.00	> 7.00	> 7.00	> 7.00	COc1ccccc1COCCC(=O)N[C@H]1CC(=O)N2CCCC(CCOc3ccc(C)c(c3)CNC(=O)[C@H](CCc3ccccc3)NC1=O)C2 (stereo partly drawn) [Compound 619, 3-((2-methoxybenzyl)oxy)-N-((9S,12S)-5^4-methyl-8,11,14-trioxo-9-phenethyl-4-oxa-7,10-diaza-1(3,1)-piperidina-5(1,3)-benzenacyclotetradecaphane-12-yl)propanamide]
> 7.00	6.30 to 7.00	6.30 to 7.00	6.30 to 7.00	> 7.00	> 7.00	Cc1ccc2cc1CNC(=O)[C@H](CCc1ccncc1)NC(=O)[C@@H](NC(=O)C1(F)CCNCC1)CC(=O)N1CCCC(CCO2)C1 (stereo partly drawn) [Compound 729, 4-fluoro-N-((12S)-5^4-methyl-8,11,14-trioxo-9-(2-(pyridin-4-yl)ethyl)-4-oxa-7,10-diaza-1(3,1)-piperidina-5(1,3)-benzenacyclotetradecaphane-12-yl)piperidine-4-carboxamide]
> 7.00	> 7.00	> 7.00	> 7.00	> 7.00	> 7.00	Cc1ccc2cc1CNC(=O)[C@H](CCc1ccccc1)NC(=O)[C@@H](NC(=O)CCNCCC1CC1)CC(=O)N1CCCC(CCO2)C1 (stereo partly drawn) [Compound 679, 3-((2-cyclopropylethyl)amino)-N-((9S,12S)-5^4-methyl-8,11,14-trioxo-9-phenethyl-4-oxa-7,10-diaza-1(3,1)-piperidina-5(1,3)-benzenacyclotetradecaphane-12-yl)propanamide]
> 7.00	> 7.00	> 7.00	> 7.00	> 7.00	> 7.00	Cc1ccc2cc1CNC(=O)[C@H](CCc1ccccc1)NC(=O)[C@@H](NC(=O)C(C)(C)c1ccc3ncccc3c1)CC(=O)N1CCCC(CCO2)C1 (stereo partly drawn) [Compound 609, 2-methyl-N-((9S,12S)-5^4-methyl-8,11,14-trioxo-9-phenethyl-4-oxa-7,10-diaza-1(3,1)-piperidina-5(1,3)-benzenacyclotetradecaphane-12-yl)-2-(quinolin-6-yl)propanamide]
> 7.00	> 7.00	> 7.00	> 7.00	> 7.00	> 7.00	CCN1CCN(C(=O)N[C@H]2CC(=O)N3CCCC(CCOc4ccc(C)c(c4)CNC(=O)[C@H](CCc4ccccc4)NC2=O)C3)CC1 (stereo partly drawn) [Compound 688, 4-ethyl-N-((9S,12S)-5^4-methyl-8,11,14-trioxo-9-phenethyl-4-oxa-7,10-diaza-1(3,1)-piperidina-5(1,3)-benzenacyclotetradecaphane-12-yl)piperazine-1-carboxamide]
> 7.00	> 7.00	> 7.00	> 7.00	> 7.00	> 7.00	Cc1ccc2cc1CNC(=O)[C@H](CCC(C)C)NC(=O)[C@@H](NC(=O)Cc1cn3ccsc3n1)CC(=O)N1CCCC(CCO2)C1 (stereo partly drawn) [Compound 583, 2-(imidazo[2,1-b]thiazol-6-yl)-N-((9S,12S)-9-isopentyl-5^4-methyl-8,11,14-trioxo-4-oxa-7,10-diaza-1(3,1)-piperidina-5(1,3)-benzenacyclotetradecaphane-12-yl)acetamide]
> 7.00	6.30 to 7.00	6.30 to 7.00	6.30 to 7.00	> 7.00	> 7.00	Cc1ccc2cc1CNC(=O)[C@H](CCc1ccccc1)NC(=O)[C@@H](NC1CCC1)CC(=O)N1CCCC(CCO2)C1 (stereo partly drawn) [Compound 717, (9S,12S)-12-(cyclobutylamino)-5^4-methyl-9-phenethyl-4-oxa-7,10-diaza-1(3,1)-piperidina-5(1,3)-benzenacyclotetradecaphane-8,11,14-trione]
> 7.00	> 7.00	> 7.00	> 7.00	> 7.00	> 7.00	Cc1ccc2cc1CNC(=O)[C@H](CCc1ccccc1)NC(=O)[C@@H](NC(=O)CCNC1CC1)CC(=O)N1CCCC(CCO2)C1 (stereo partly drawn) [Compound 649, 3-(cyclopropylamino)-N-((9S,12S)-5^4-methyl-8,11,14-trioxo-9-phenethyl-4-oxa-7,10-diaza-1(3,1)-piperidina-5(1,3)-benzenacyclotetradecaphane-12-yl)propanamide]
> 7.00	> 7.00	> 7.00	> 7.00	> 7.00	> 7.00	COc1ccccc1CCOCCC(=O)N[C@H]1CC(=O)N2CCCC(CCOc3ccc(C)c(c3)CNC(=O)[C@H](CCc3ccccc3)NC1=O)C2 (stereo partly drawn) [Compound 582, 3-(2-methoxyphenethoxy)-N-((9S,12S)-5^4-methyl-8,11,14-trioxo-9-phenethyl-4-oxa-7,10-diaza-1(3,1)-piperidina-5(1,3)-benzenacyclotetradecaphane-12-yl)propanamide]
> 7.00	6.30 to 7.00	6.30 to 7.00	6.00 to 6.30	> 7.00	> 7.00	Cc1ccc2cc1CNC(=O)[C@H](CCc1ccccc1)NC(=O)[C@@H](NC(=O)CCNC1CC3(COC3)C1)CC(=O)N1CCCC(CCO2)C1 (stereo partly drawn) [Compound 720, 3-((2-oxaspiro[3.3]heptan-6-yl)amino)-N-((9S,12S)-5^4-methyl-8,11,14-trioxo-9-phenethyl-4-oxa-7,10-diaza-1(3,1)-piperidina-5(1,3)-benzenacyclotetradecaphane-12-yl)propanamide]
> 7.00	> 7.00	> 7.00	> 7.00	> 7.00	> 7.00	COc1cccc(OCCC(=O)N[C@H]2CC(=O)N3CCCC(CCOc4ccc(C)c(c4)CNC(=O)[C@H](CCc4ccccc4)NC2=O)C3)c1 (stereo partly drawn) [Compound 587, 3-(3-methoxyphenoxy)-N-((9S,12S)-5^4-methyl-8,11,14-trioxo-9-phenethyl-4-oxa-7,10-diaza-1(3,1)-piperidina-5(1,3)-benzenacyclotetradecaphane-12-yl)propanamid]
> 7.00	> 7.00	> 7.00	> 7.00	> 7.00	> 7.00	Cc1ccc2cc1CNC(=O)[C@H](CCc1ccccc1)NC(=O)[C@@H](NC(=O)CCN1CCC3(CCC3)C1)CC(=O)N1CCCC(CCO2)C1 (stereo partly drawn) [Compound 639, N-((9S,12S)-5^4-methyl-8,11,14-trioxo-9-phenethyl-4-oxa-7,10-diaza-1(3,1)-piperidina-5(1,3)-benzenacyclotetradecaphane-12-yl)-3-(6-azaspiro[3.4]octan-6-yl)propanamide]
> 7.00	> 7.00	> 7.00	> 7.00	> 7.00	> 7.00	Cc1ccc2cc1CNC(=O)[C@H](CCc1ccccc1)NC(=O)[C@@H](NC(=O)CN1CCC1)CC(=O)N1CCCC(CCO2)C1 (stereo partly drawn) [Compound 663, 2-(azetidin-1-yl)-N-((9S,12S)-5^4-methyl-8,11,14-trioxo-9-phenethyl-4-oxa-7,10-diaza-1(3,1)-piperidina-5(1,3)-benzenacyclotetradecaphane-12-yl)acetamide]
> 7.00	> 7.00	> 7.00	> 7.00	> 7.00	> 7.00	Cc1ccc2cc1CNC(=O)[C@H](CCc1ccccc1)NC(=O)[C@@H](NC(=O)CCOCCc1ccccc1)CC(=O)N1CCCC(CCO2)C1 (stereo partly drawn) [Compound 618, N-((9S,12S)-5^4-methyl-8,11,14-trioxo-9-phenethyl-4-oxa-7,10-diaza-1(3,1)-piperidina-5(1,3)-benzenacyclotetradecaphane-12-yl)-3-phenethoxypropanamide]
